Measured values reported in ChEMBL document CHEMBL4261603, “Development of high potent and selective Bcl-2 inhibitors bearing the structural elements of natural product artemisinin” (Eur J Med Chem, 2018).

Tests used:
[1] = test system: Toledo; assay: Antiproliferative activity against human Toledo cells after 72 hrs by MTS assay; assay type: functional, cell-based
[2] = organism: Homo sapiens; assay: Selectivity factor, ratio of IC50 for Bcl-xL (unknown origin) to Bcl2 (unknown origin)
[3] = test system: RS4-11; assay: Antiproliferative activity against human RS4:11 cells after 72 hrs by MTS assay; assay type: functional, cell-based; details: RS4-11, 72 h
[4] = target: Apoptosis regulator Bcl-2 (Homo sapiens, UniProt P10415); assay: Inhibition of FAM-labelled Bax binding to Bcl2 (unknown origin) after 30 mins by fluorescence polarization assay
Sequence of Apoptosis regulator Bcl-2 (P10415 whole entry): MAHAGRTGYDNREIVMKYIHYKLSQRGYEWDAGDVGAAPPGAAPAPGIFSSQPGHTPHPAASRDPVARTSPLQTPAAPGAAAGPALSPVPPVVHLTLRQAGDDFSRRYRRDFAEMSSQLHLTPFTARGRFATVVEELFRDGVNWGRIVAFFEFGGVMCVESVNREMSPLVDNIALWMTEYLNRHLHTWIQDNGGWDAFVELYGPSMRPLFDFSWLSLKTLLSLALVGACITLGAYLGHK

[5] = target: Bcl-2-like protein 1 (Homo sapiens, UniProt Q07817); assay: Inhibition of FAM-labelled Bax binding to Bcl-xL (unknown origin) after 30 mins by fluorescence polarization assay
Sequence of Bcl-2-like protein 1 (Q07817 whole entry): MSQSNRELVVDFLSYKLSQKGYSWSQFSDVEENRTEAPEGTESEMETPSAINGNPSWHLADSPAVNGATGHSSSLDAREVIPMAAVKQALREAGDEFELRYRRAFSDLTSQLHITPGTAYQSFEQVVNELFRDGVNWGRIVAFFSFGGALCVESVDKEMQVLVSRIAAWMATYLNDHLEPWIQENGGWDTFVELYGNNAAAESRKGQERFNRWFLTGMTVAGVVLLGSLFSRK

[6] = target: Voltage-gated inwardly rectifying potassium channel KCNH2 (Homo sapiens, UniProt Q12809); assay: Inhibition of human ERG
Sequence of Voltage-gated inwardly rectifying potassium channel KCNH2 (Q12809 whole entry): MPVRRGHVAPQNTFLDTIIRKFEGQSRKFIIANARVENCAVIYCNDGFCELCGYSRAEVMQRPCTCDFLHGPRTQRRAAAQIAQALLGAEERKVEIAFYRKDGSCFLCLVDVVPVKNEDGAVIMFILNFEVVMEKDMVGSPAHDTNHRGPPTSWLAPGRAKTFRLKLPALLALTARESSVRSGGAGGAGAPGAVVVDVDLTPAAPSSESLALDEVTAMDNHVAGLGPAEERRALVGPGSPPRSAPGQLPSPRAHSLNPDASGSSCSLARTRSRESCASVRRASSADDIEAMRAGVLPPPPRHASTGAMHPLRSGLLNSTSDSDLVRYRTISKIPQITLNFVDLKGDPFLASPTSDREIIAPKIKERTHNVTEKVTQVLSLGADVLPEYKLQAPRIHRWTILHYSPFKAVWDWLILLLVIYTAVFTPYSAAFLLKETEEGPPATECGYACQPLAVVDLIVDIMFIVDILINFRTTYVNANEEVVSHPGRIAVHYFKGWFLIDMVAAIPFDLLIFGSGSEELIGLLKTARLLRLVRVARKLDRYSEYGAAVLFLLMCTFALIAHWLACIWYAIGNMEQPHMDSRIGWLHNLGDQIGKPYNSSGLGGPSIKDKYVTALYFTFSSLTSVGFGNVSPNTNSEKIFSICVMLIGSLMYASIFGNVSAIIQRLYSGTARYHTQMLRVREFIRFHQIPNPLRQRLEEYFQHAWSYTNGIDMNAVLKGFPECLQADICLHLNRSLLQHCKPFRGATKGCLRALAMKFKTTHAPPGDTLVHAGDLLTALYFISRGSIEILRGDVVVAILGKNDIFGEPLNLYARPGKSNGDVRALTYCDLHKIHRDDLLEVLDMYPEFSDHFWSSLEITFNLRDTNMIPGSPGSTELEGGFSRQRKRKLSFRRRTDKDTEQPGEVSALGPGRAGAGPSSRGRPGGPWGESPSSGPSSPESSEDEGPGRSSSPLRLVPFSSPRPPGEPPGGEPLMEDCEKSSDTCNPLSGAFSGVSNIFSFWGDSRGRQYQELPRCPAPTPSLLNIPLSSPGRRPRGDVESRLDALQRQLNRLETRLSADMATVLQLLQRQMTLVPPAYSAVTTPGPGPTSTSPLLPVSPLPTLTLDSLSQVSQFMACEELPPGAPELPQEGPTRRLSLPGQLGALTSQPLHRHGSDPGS

[7] = Apparent permeability across apical to basolateral side in human Caco2 cells at 20 uM; assay type: ADME, cell-based; details: Caco-2
[8] = Apparent permeability across basolateral to apical side in human Caco2 cells at 20 uM; assay type: ADME, cell-based; details: Caco-2
[9] = Efflux ratio of apparent permeability across […] to apical side in human Caco2 cells at 20 uM; assay type: ADME, cell-based; details: Caco-2

Structure (SMILES) | IC50 [1] | Ratio IC50 [2] | IC50 [3] | IC50 [4] | IC50 [5] | IC50 [6] | Papp A→B at 20 µM [7] | Papp B→A at 20 µM [8] | efflux ratio at 20 µM [9]
C[C@H]1[C@@H](CC(=O)N2CCN(c3ccc(C(=O)NS(=O)(=O)c4ccc(NCC5CCOCC5)c([N+](=O)[O-])c4)c(Oc4cnc5[nH]ccc5c4)c3)CC2)O[C@@H]2O[C@]3(C)O[C@]24[C@H]1CC[C@@H](C)[C@@H]4C[C@H]3O | > 1 µM | 15.3 | > 1 µM | 0.0501 µM | 0.765 µM | – | – | – | –
C[C@H]1[C@@H](OCCN2CCN(c3ccc(C(=O)NS(=O)(=O)c4ccc(NCC5CCOCC5)c([N+](=O)[O-])c4)c(Oc4cnc5[nH]ccc5c4)c3)CC2)O[C@@H]2O[C@@]3(C)CC[C@H]4[C@H](C)CC[C@@H]1[C@@]24O3 | 9.7 µM | 280 | 4.4 µM | 0.0022 µM | 0.624 µM | – | – | – | –
C[C@H]1[C@@H](CCCN2CCN(c3ccc(C(=O)NS(=O)(=O)c4ccc(NCC5CCOCC5)c([N+](=O)[O-])c4)c(Oc4cnc5[nH]ccc5c4)c3)CC2)O[C@@H]2O[C@@]3(C)CC[C@H]4[C@H](C)CC[C@@H]1[C@@]24OO3 | 0.88 µM | > 806 | 0.89 µM | 0.0012 µM | > 1 µM | > 40 µM | – | – | –
C[C@H]1[C@@H](OCCN2CCN(c3ccc(C(=O)NS(=O)(=O)c4ccc(NCC5CCOCC5)c([N+](=O)[O-])c4)c(Oc4cnc5[nH]ccc5c4)c3)CC2)O[C@@H]2O[C@@]3(C)CC[C@H]4[C@H](C)CC[C@@H]1[C@@]24OO3 | 0.95 µM | 55.3 | 0.52 µM | 0.005 µM | 0.279 µM | > 40 µM | 2.1 nm/s | 60.7 nm/s | 28.8
C[C@H]1[C@@H](CCN2CCN(c3ccc(C(=O)NS(=O)(=O)c4ccc(NCC5CCOCC5)c([N+](=O)[O-])c4)c(Oc4cnc5[nH]ccc5c4)c3)CC2)O[C@@H]2O[C@@]3(C)CC[C@H]4[C@H](C)CC[C@@H]1[C@@]24O3 | 2.6 µM | > 546 | 1.3 µM | 0.0018 µM | > 1 µM | – | – | – | –
C[C@@H]1CC[C@H]2[C@@H](C)C(OCCN3CCN(c4ccc(C(=O)NS(=O)(=O)c5ccc(NCC6CCOCC6)c([N+](=O)[O-])c5)c(Oc5cnc6[nH]ccc6c5)c4)C[C@@H]3CO)O[C@@H]3O[C@@]4(C)CC[C@@H]1[C@]32OO4 (stereo partly drawn) | > 1 µM | 34.8 | > 1 µM | 0.0287 µM | > 1 µM | – | – | – | –
C[C@@H]1CC[C@H]2[C@@H](C)C(OCCNC3CCN(c4ccc(C(=O)NS(=O)(=O)c5ccc(NCC6CCOCC6)c([N+](=O)[O-])c5)c(Oc5cnc6[nH]ccc6c5)c4)CC3)O[C@@H]3O[C@@]4(C)CC[C@@H]1[C@]32OO4 (stereo partly drawn) | > 1 µM | > 526 | > 1 µM | 0.0019 µM | > 1 µM | – | – | – | –
C[C@H]1[C@@H](CC(=O)N2CCN(c3ccc(C(=O)NS(=O)(=O)c4ccc(NCC5CCOCC5)c([N+](=O)[O-])c4)c(Oc4cnc5[nH]ccc5c4)c3)CC2)O[C@@H]2O[C@@]3(C)CC[C@H]4[C@H](C)CC[C@@H]1[C@@]24OO3 | – | 9.16 | – | 0.0119 µM | 0.109 µM | – | – | – | –
C[C@@H]1CC[C@H]2[C@@H](C)C(OCCN3CCN(c4ccc(C(=O)NS(=O)(=O)c5ccc(NCC6CCOCC6)c([N+](=O)[O-])c5)c(Oc5cnc6[nH]ccc6c5)c4)C[C@H]3CO)O[C@@H]3O[C@@]4(C)CC[C@@H]1[C@]32OO4 (stereo partly drawn) | > 1 µM | 14.9 | > 1 µM | 0.0671 µM | > 1 µM | – | – | – | –
CO[C@H]1OC2O[C@@]3(C)CC[C@H]4[C@H](C)CC[C@@H]([C@]1(C)CC(=O)N1CCN(c5ccc(C(=O)NS(=O)(=O)c6ccc(NCC7CCOCC7)c([N+](=O)[O-])c6)c(Oc6cnc7[nH]ccc7c6)c5)CC1)[C@@]24OO3 (stereo partly drawn) | – | > 28.8 | – | 0.0347 µM | > 1 µM | – | – | – | –
C[C@H]1[C@@H](OCCN2CCN(c3ccc(C(=O)NS(=O)(=O)c4ccc(NCC5CCOCC5)c([N+](=O)[O-])c4)c(Oc4cnc5[nH]ccc5c4)c3)CC2)O[C@@H]2O[C@]3(C)O[C@]24[C@H]1CC[C@@H](C)[C@@H]4C[C@H]3O | – | > 31.3 | – | 0.0319 µM | > 1 µM | – | – | – | –
C[C@H]1[C@H](N(C)CCN2CCN(c3ccc(C(=O)NS(=O)(=O)c4ccc(NCC5CCOCC5)c([N+](=O)[O-])c4)c(Oc4cnc5[nH]ccc5c4)c3)CC2)O[C@@H]2O[C@@]3(C)CC[C@H]4[C@H](C)CC[C@@H]1[C@@]24OO3 | – | > 59.9 | – | 0.0167 µM | > 1 µM | – | – | – | –
C[C@H]1[C@@H](CC(=O)N2CCN(c3ccc(C(=O)NS(=O)(=O)c4ccc(NCC5CCOCC5)c([N+](=O)[O-])c4)c(Oc4cnc5[nH]ccc5c4)c3)CC2)O[C@@H]2O[C@@]3(C)CC[C@H]4[C@H](C)CC[C@@H]1[C@@]24O3 | > 1 µM | 77.2 | > 1 µM | 0.0035 µM | 0.27 µM | – | – | – | –
C[C@@H]1CC[C@H]2C(CN3CCN(c4ccc(C(=O)NS(=O)(=O)c5ccc(NCC6CCOCC6)c([N+](=O)[O-])c5)c(Oc5cnc6[nH]ccc6c5)c4)CC3)=C(C(F)(F)F)O[C@@H]3O[C@@]4(C)CC[C@@H]1[C@]32OO4 | > 1 µM | 11.7 | > 1 µM | 0.0062 µM | 0.0719 µM | – | – | – | –
C[C@@H]1CC[C@H]2[C@@](C)(O)[C@@H](OCCN3CCN(c4ccc(C(=O)NS(=O)(=O)c5ccc(NCC6CCOCC6)c([N+](=O)[O-])c5)c(Oc5cnc6[nH]ccc6c5)c4)CC3)O[C@@H]3O[C@@]4(C)CC[C@@H]1[C@]32OO4 | – | 3.3 | – | 0.0865 µM | 0.287 µM | – | – | – | –
C[C@@H]1CC[C@@H]2[C@]34OO[C@](C)(CC[C@@H]13)O[C@H]4O[C@]2(C)C(=O)N1CCN(c2ccc(C(=O)NS(=O)(=O)c3ccc(NCC4CCOCC4)c([N+](=O)[O-])c3)c(Oc3cnc4[nH]ccc4c3)c2)CC1 | – | 39.2 | – | 0.013 µM | 0.512 µM | – | – | – | –
C[C@H]1[C@@H](CCN2CCN(c3ccc(C(=O)NS(=O)(=O)c4ccc(NCC5CCOCC5)c([N+](=O)[O-])c4)c(Oc4cnc5[nH]ccc5c4)c3)CC2)O[C@@H]2O[C@@]3(C)CC[C@H]4[C@H](C)CC[C@@H]1[C@@]24OO3 | – | > 103 | – | 0.0097 µM | > 1 µM | – | – | – | –
C[C@@H]1CC[C@H]2C(CN3CCN(c4ccc(C(=O)NS(=O)(=O)c5ccc(NCC6CCOCC6)c([N+](=O)[O-])c5)c(Oc5cnc6[nH]ccc6c5)c4)CC3)=C(C(F)(F)F)O[C@@H]3O[C@@]4(C)CC[C@@H]1[C@]32O4 | 7.4 µM | 343 | 1.9 µM | 0.0028 µM | 0.97 µM | – | – | – | –
CC1(C)CCC(CN2CCN(c3ccc(C(=O)NS(=O)(=O)c4ccc(NCC5CCOCC5)c([N+](=O)[O-])c4)c(Oc4cnc5[nH]ccc5c4)c3)CC2)=C(c2ccc(Cl)cc2)C1 [VENETOCLAX] | 0.011 µM | – | 0.006 µM | – | – | – | – | – | –
